From patent US10323037B2, “Aminopyridazinone compounds as protein kinase inhibitors” (Jiangsu Hengrui Medicine Co., Ltd., priority 2014, dated 2019) come the findings set out here.

Usually IC50 stands for the concentration needed to halve the response being measured.

One experiment concerns TMD-8 cells. Put plainly: Cell proliferation assay (CellTiter-Glo), TMD-8. Format: cell-based. The note with it: 5-day treatment; read-out: TMD8 cells growth IC50. How it is done: Cell proliferation assay: TMD-8 and SU-DHL-1 cells were maintained at 37° C. in a humidified atmosphere with 5% CO2 in the recommended medium and serum concentrations. For cell proliferation assay, cells were seeded in 96-well pates at a density of 5,000 to 10,000 cells per well and cultured overnight at 37° C. in recommended medium supplemented with 5-10% FBS. On the next day, the test articles at various concentrations or vehicle control (0.5% DMSO) were added into cell culture. After 5-day treatment, the growth of cells was assayed by the CellTiter-Glo® Luminestceaent Cell Viability Assay (Promega). IC50 values were calculated using GraphPad Prism by plotting the logarithm of the concentration versus percent inhibition of cell growth as compared with the vehicle control.
Background: ATP-based viability assays read luminescence as a measure of living cells.
On to `CN(C)C/C=C/C(=O)NC1CCC(n2cc(-c3ccc(Oc4ccccc4)cc3)c3c(N)n[nH]c(=O)c32)CC1` (stereo not shown) [Example 46, (E)-N-[4-[4-amino-7-oxo-3-(4-phenoxyphenyl)-6H-pyrrolo[2,3 d]pyridazin-1-yl]cyclohexyl]-4-(dimethylamino)but-2-enamide], for which the half-inhibitory concentration (IC50) lay in the range of 10 to 1000 nM.

The experiment is the same for the next values; noted with them: Homo sapiens, TMD8, 120 h; 5-day treatment; read-out: TMD8 cells growth IC50.
Regarding `CN(C)C/C=C/C(=O)N1CCC[C@@H](n2c(F)c(-c3ccc(Oc4ccccc4)cc3)c3c(N)n[nH]c(=O)c32)C1` [Example 82, 4-amino-1-[(3R)-1-[(E)-4-(dimethylamino)but-2-enoyl]-3-piperidyl]-2-fluoro-3-(4-phenoxyphenyl)-6H-pyrrolo[2,3-d]pyridazin-7-one], the half-maximal inhibitory concentration (IC50) was not above 10 nM.

`CN(C)C/C=C/C(=O)N1CCCC(n2cc(-c3ccc(Oc4ccc(Cl)cc4)cc3)c3c(N)n[nH]c(=O)c32)C1` (stereo not shown) [Example 65, 4-amino-3-[4-(4-chlorophenoxy)phenyl]-1-[1-[(E)-4-(dimethylamino)but-2-enoyl]-3-piperidyl]-6H-pyrrolo[2,3-d]pyridazin-7-one]: the half-maximal inhibitory concentration (IC50) was in the range of 10 to 1000 nM. On the same count and under the same terms, next, `CN(C)C/C=C/C(=O)N1CC(n2cc(-c3ccc(Oc4ccccc4)cc3)c3c(N)n[nH]c(=O)c32)C1` [Example 40, 4-amino-1-[1-[(E)-4-(dimethylamino)but-2-enoyl]azetidin-3-yl]-3-(4-phenoxyphenyl)-6H-pyrrolo[2,3-d]pyridazin-7-one]: 10 to 1000 nM; `CC#CC(=O)NC1CCC(n2cc(-c3ccc(Oc4ccccc4F)cc3)c3c(N)n[nH]c(=O)c32)C1` (stereo not shown) [Example 100, N-(3-(4-amino-3-(4-(2-fluorophenoxy)phenyl)-7-oxo-6,7-dihydro-1H-pyrrolo[2,3-d]pyridazin-1-yl)cyclopentyl)but-2-ynamide]: not above 10 nM; `C/C=C/C(=O)N1CCC[C@@H](n2cc(-c3ccc(Oc4c(F)cccc4F)cc3)c3c(N)n[nH]c(=O)c32)C1` [Example 116, 4-amino-3-[4-(2,6-difluorophenoxy)phenyl]-1-[(3R)-1-[(E)-but-2-enoyl]-3-piperidyl]-6H-pyrrolo[2,3-d]pyridazin-7-one]: 10 to 1000 nM. In the case of `COc1cc(-c2cn([C@@H]3CCCN(C(=O)/C=C/CN(C)C)C3)c3c(=O)[nH]nc(N)c23)ccc1Oc1ccc(Cl)c(Cl)c1` [Example 73, 4-amino-3-[4-(3,4-dichlorophenoxy)-3-methoxy-phenyl]-1-[(3R)-1-[(E)-4-(dimethylamino)but-2-enoyl]-3-piperidyl]-6H-pyrrolo[2,3-d]pyridazin-7-one], the half-maximal inhibitory concentration (IC50) fell in the range of 10 to 1000 nM. Same read-out and setting: as for `Nc1n[nH]c(=O)c2c1c(-c1ccc(Oc3ccccc3)cc1)cn2[C@@H]1CCCN(C(=O)/C=C/CNC2CC2)C1` [Example 28, 4-amino-1-[(3R)-1-[(E)-4-(cyclopropylamino)but-2-enoyl]-3-piperidyl]-3-(4-phenoxyphenyl)-6H-pyrrolo[2,3-d]pyridazin-7-one], the figure is not above 10 nM. Same read-out and setting: next, `C=CC(=O)N1CCCC(n2cc(-c3ccc(OC)c(Cl)c3)c3c(N)n[nH]c(=O)c32)C1` (stereo not shown) [Example 53, 1-(1-acryloylpiperidin-3-yl)-4-amino-3-(3-chloro-4-methoxyphenyl)-1H-pyrrolo[2,3-d]pyridazin-7(6H)-one]: 10 to 1000 nM; `Nc1n[nH]c(=O)c2c1c(-c1ccc(Oc3ccccc3)cc1)cn2[C@@H]1CCCN(C(=O)/C=C/CN2CCCC2)C1` [Example 34, 4-amino-3-(4-phenoxyphenyl)-1-[(3R)-1-[(E)-4-pyrrolidin-1-ylbut-2-enoyl]-3-piperidyl]-6H-pyrrolo[2,3-d]pyridazin-7-one]: not above 10 nM. In the case of `N#CN1CCC[C@@H](n2cc(-c3ccc(Oc4ccccc4)cc3)c3c(N)n[nH]c(=O)c32)C1` [Example 20, (R)-3-(4-amino-7-oxo-3-(4-phenoxyphenyl)-6,7-dihydro-1H-pyrrolo[2,3-d]pyridazin-1-yl)piperidine-1-carbonitrile], the half-inhibitory concentration (IC50) was not above 10 nM.

`CN(C/C=C/C(=O)N1CCC[C@@H](n2cc(-c3ccc(Oc4ccccc4)cc3)c3c(N)n[nH]c(=O)c32)C1)C1CC1` [Example 29, 4-amino-1-[(3R)-1-[(E)-4-(cyclopropyl(methyl)amino)but-2-enoyl]-3-piperidyl]-3-(4-phenoxyphenyl)-6H-pyrrolo[2,3-d]pyridazin-7-one]: the half-maximal inhibitory concentration (IC50) is not above 10 nM.

As for `C=CC(=O)N1CCC[C@@H](n2cc(-c3ccc(Oc4ccccc4)cc3F)c3c(N)n[nH]c(=O)c32)C1` [Example 76, (R)-1-(1-acryloylpiperidin-3-yl)-4-amino-3-(2-fluoro-4-phenoxyphenyl)-1H-pyrrolo[2,3-d]pyridazin-7(6H)-one], the concentration for half-maximal inhibition (IC50) is not above 10 nM. As to `C=CC(=O)N1CC(n2cc(-c3ccc(Oc4ccccc4)cc3)c3c(N)n[nH]c(=O)c32)C1` [Example 5, 4-amino-3-(4-phenoxyphenyl)-1-(1-prop-2-enoylazetidin-3-yl)-6H-pyrrolo[2,3-d]pyridazin-7-one], the half-inhibitory concentration (IC50) is 10 to 1000 nM. Same read-out and setting: next, `C=CC(=O)N1CCCC(n2cc(-c3ccc(Oc4cccc(Cl)c4)cc3)c3c(N)n[nH]c(=O)c32)C1` (stereo not shown) [Example 66, 1-(1-acryloylpiperidin-3-yl)-4-amino-3-(4-(3-chlorophenoxy)phenyl)-1H-pyrrolo[2,3-d]pyridazin-7(6H)-one]: not above 10 nM; `C=CC(=O)N1CCC[C@@H](n2cc(-c3ccc(Oc4c(F)cccc4F)cc3)c3c(N)n[nH]c(=O)c32)C1` [Example 58, (R)-1-(1-acryloylpiperidin-3-yl)-4-amino-3-(4-(2,6-difluorophenoxy)phenyl)-1H-pyrrolo[2,3-d]pyridazin-7(6H)-one]: not above 10 nM; `CN(C)C/C=C/C(=O)N1CCC[C@@H](n2cc(-c3ccc(Oc4ccccc4)cc3)c3c(N)n[nH]c(=O)c32)C1` [Example 26, 4-amino-1-[(3R)-1-[(E)-4-(dimethylamino)but-2-enoyl]-3-piperidyl]-3-(4-phenoxyphenyl)-6H-pyrrolo[2,3-d]pyridazin-7-one]: not above 10 nM. The same measure, in the same setting: next, `CCN(C/C=C/C(=O)N1CCC[C@@H](n2cc(-c3ccc(Oc4ccccc4)cc3)c3c(N)n[nH]c(=O)c32)C1)C1CC1` [Example 30, 4-amino-1-[(3R)-1-[(E)-4-[cyclopropyl(ethyl)amino]but-2-enoyl]-3-piperidyl]-3-(4-phenoxyphenyl)-6H-pyrrolo[2,3-d]pyridazin-7-one]: 10 to 1000 nM; `Nc1n[nH]c(=O)c2c1c(-c1ccc(Oc3ccccc3)cc1)cn2[C@@H]1CCCN(C(=O)/C=C/CN2CCOCC2)C1` [Example 35, 4-amino-1-[(3R)-1-[(E)-4-morpholinobut-2-enoyl]-3-piperidyl]-3-(4-phenoxyphenyl)-6H-pyrrolo[2,3-d]pyridazin-7-one]: not above 10 nM. Same read-out and setting: as for `CN(C)C/C=C/C(=O)N1CCCC(n2cc(-c3ccc(Oc4ccc(F)cc4)cc3)c3c(N)n[nH]c(=O)c32)C1` (stereo not shown) [Example 61, 4-amino-1-[1-[(E)-4-(dimethylamino)but-2-enoyl]-3-piperidyl]-3-[4-(4-fluorophenoxy)phenyl]-6H-pyrrolo[2,3-d]pyridazin-7-one], the figure is 10 to 1000 nM; as for `CC#CC(=O)N[C@H]1CC[C@@H](n2cc(-c3ccc(Oc4ccccc4F)cc3)c3c(N)n[nH]c(=O)c32)CC1` [Example 102, N-((1s,4s)-4-(4-amino-3-(4-(2-fluorophenoxy)phenyl)-7-oxo-6,7-dihydro-1H-pyrrolo[2,3-d]pyridazin-1-yl)cyclohexyl)but-2-ynamide], not above 10 nM. As to `CN(C)C/C=C/C(=O)N1CCCC(n2cc(-c3ccc(Oc4cccc(F)c4)cc3)c3c(N)n[nH]c(=O)c32)C1` (stereo not shown) [Example 63, 4-amino-1-[1-[(E)-4-(dimethylamino)but-2-enoyl]-3-piperidyl]-3-[4-(3-fluorophenoxy)phenyl]-6H-pyrrolo[2,3-d]pyridazin-7-one], the 50% inhibitory concentration (IC50) is not above 10 nM.

In the case of `CCC(=O)N1CCC[C@@H](n2cc(-c3ccc(Oc4c(F)cccc4F)cc3)c3c(N)n[nH]c(=O)c32)C1` [Example 115, (R)-4-amino-3-(4-(2,6-difluorophenoxy)phenyl)-1-(1-propionylpiperidin-3-yl)-1H-pyrrolo[2,3-d]pyridazin-7(6H)-one], the IC50 is 10 to 1000 nM.

Regarding `C=CC(=O)Nc1cccc(-n2cc(-c3ccc(Oc4ccccc4)cc3)c3c(N)n[nH]c(=O)c32)c1` [Example 88, N-(3-(4-amino-7-oxo-3-(4-phenoxyphenyl)-6,7-dihydro-1H-pyrrolo[2,3-d]pyridazin-1-yl)phenyl)acrylamide], the IC50 was not above 10 nM. Take `C=CC(=O)N[C@H]1CC[C@H](n2cc(-c3ccc(Oc4ccccc4F)cc3)c3c(N)n[nH]c(=O)c32)CC1` [Example 105, N-((1r,4r)-4-(4-amino-3-(4-(2-fluorophenoxy)phenyl)-7-oxo-6,7-dihydro-1H-pyrrolo[2,3-d]pyridazin-1-yl)cyclohexyl)acrylamide]: the half-maximal inhibitory concentration (IC50) was in the range of 10 to 1000 nM. The same measure, in the same setting: as for `CN(C)C/C=C/C(=O)N1CCCC(n2cc(-c3ccc(Oc4ccccc4)cc3)c3c(N)n[nH]c(=O)c32)C1` (stereo not shown) [Example 38, 4-amino-1-[1-[(E)-4-(dimethylamino)but-2-enoyl]-3-piperidyl]-3-(4-phenoxyphenyl)-6H-pyrrolo[2,3-d]pyridazin-7-one], the figure is not above 10 nM. Regarding `CN(C)C/C=C/C(=O)N1CCC[C@@H](n2cc(-c3ccc(Oc4ccccc4Cl)cc3)c3c(N)n[nH]c(=O)c32)C1` [Example 71, 4-amino-3-[4-(2-chlorophenoxy)phenyl]-1-[(3R)-1-[(E)-4-(dimethylamino)but-2-enoyl]-3-piperidyl]-6H-pyrrolo[2,3-d]pyridazin-7-one], the IC50 was not above 10 nM. Take `C=CC(=O)Nc1cccc(-n2cc(-c3ccc(Oc4ccccc4F)cc3)c3c(N)n[nH]c(=O)c32)c1` [Example 91, N-(3-(4-amino-3-(4-(2-fluorophenoxy)phenyl)-7-oxo-6,7-dihydro-1H-pyrrolo[2,3-d]pyridazin-1-yl)phenyl)acrylamide]: the IC50 was not above 10 nM.
